Earlier results as cited in patent US20200383964A1, “MITOCHONDRIA TARGETING, MPTP REGULATION, AND THE REDUCTION OF MITOCHONDRIAL REACTIVE SPECIES” (priority 2017, published 2020).

Test system: mitochondrial permeability transition pore (MPTP)

CC(=O)C=O [Methylglyoxal, methylglyoxal]
suppression of permeability transition (incubation with isolated mitochondria, covalent binding to the MPTP): complete suppression | time to suppression of the permeability transition (isolated mitochondria): ≤ 5 min
